Measurements from patent US20100069380A1 (published 2010).

Question: For `Nc1ccc(Sc2c(O)c3c(=O)n(-c4ccccc4)c4ccccc4c3oc2=O)cc1`, which melting point is on record?
Answer: > 300 °C
